Measurements: patent publication US6355799B1, “Substituted benzene compounds, process for their preparation, and herbicidal and defoliant compositions containing them” (ISK Americas Incorporated, priority 1997, dated 2002)

Key:
Format in all cases: in vivo
[1] = system: upland rice (Oryza sp., var. Tebonnet, RICE); assay: Post-emerge test, crop safety; conditions: rating scale 0-100 (0 no damage, 100 complete death), 14 days after application
Summary of the method: (§1)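 Each test used a mechanized track sprayer delivering 187 l/ha of acetone solution at 15–1000 g ai/ha. Post-emerge foliage at 2–3 leaves was treated with added 0.25% v/v non-ionic surfactant and bottom-watered only. Injury was assessed on day 14, where 100 means total kill.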

[2] = system: field corn (Zea mays L., var. Dekalb 535, CORN); assay: Post-emerge test, crop safety; conditions: rating scale 0-100 (0 no damage, 100 complete death), 14 days after application
Summary of the method: as §1

[3] = system: redroot pigweed (Amaranthus retroflexus, AMARE); assay: Post-emerge test, greenhouse herbicide activity screening; conditions: rating scale 0-100 (0 no damage, 100 complete death), 14 days after application
Summary of the method: (§2)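 Herbicidal damage is scored 0 (none) to 100 (complete plant death) two weeks after a simulated field spray. Rates span 15–1000 g ai/ha, delivered in acetone at 187 l/ha. For post-emergence treatments, plants have 2–3 leaves and the spray carries 0.25% v/v non-ionic surfactant.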

[4] = system: johnsongrass (Sorghum halepense, SORHA); assay: as above; conditions: rating scale 0-100 (0 no damage, 100 complete death), 14 days after application
Summary of the method: as §2

[5] = system: sicklepod (Cassia obtusifolia, CASOB); assay: as above; conditions: rating scale 0-100 (0 no damage, 100 complete death), 14 days after application
Summary of the method: as §2

[6] = system: green foxtail (Setaria viridis, SETVI); assay: as above; conditions: rating scale 0-100 (0 no damage, 100 complete death), 14 days after application
Summary of the method: as §2

[7] = system: large crabgrass (Digitaria sanguinalis, DIGSA); assay: as above; conditions: rating scale 0-100 (0 no damage, 100 complete death), 14 days after application
Summary of the method: as §2

[8] = system: barnyardgrass (Echinochloa crus-galli, ECHCG); assay: as above; conditions: rating scale 0-100 (0 no damage, 100 complete death), 14 days after application
Summary of the method: as §2

[9] = system: common ragweed (Ambrosia artemisizfolia L., AMBEL); assay: as above; conditions: rating scale 0-100 (0 no damage, 100 complete death), 14 days after application
Summary of the method: as §2

[10] = system: lambsquarters (Chenopodium album, CHEAL); assay: as above; conditions: rating scale 0-100 (0 no damage, 100 complete death), 14 days after application
Summary of the method: as §2

[11] = system: ivyleaf morningglory (Ipomoea hederacea, IPOHE); assay: as above; conditions: rating scale 0-100 (0 no damage, 100 complete death), 14 days after application
Summary of the method: as §2

[12] = system: velvetleaf (Abutilon theophrasti, ABUTH); assay: as above; conditions: rating scale 0-100 (0 no damage, 100 complete death), 14 days after application
Summary of the method: as §2

[13] = system: johnsongrass (Sorghum halepense, SORHA); assay: Pre-emerge test, greenhouse herbicide activity screening; conditions: rating scale 0-100, 14 days after application
Summary of the method: (§3)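 Plants grown in 10 cm pots of sandy loam mix received acetone-dissolved compounds through a moving flat-fan nozzle. Doses ranged from 15 to 1000 g ai/ha. Pre-emerge pots were seeded one day earlier, post-emerge pots 8–21 days earlier. Fourteen days on, each pot was graded 0–100 for damage.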

[14] = system: sicklepod (Cassia obtusifolia, CASOB); assay: as above; conditions: rating scale 0-100, 14 days after application
Summary of the method: as §3

[15] = system: green foxtail (Setaria viridis, SETVI); assay: as above; conditions: rating scale 0-100, 14 days after application
Summary of the method: as §3

[16] = system: large crabgrass (Digitaria sanguinalis, DIGSA); assay: as above; conditions: rating scale 0-100, 14 days after application
Summary of the method: as §3

[17] = system: barnyardgrass (Echinochloa crus-galli, ECHCG); assay: as above; conditions: rating scale 0-100, 14 days after application
Summary of the method: as §3

[18] = system: lambsquarters (Chenopodium album, CHEAL); assay: as above; conditions: rating scale 0-100, 14 days after application
Summary of the method: as §3

[19] = system: ivyleaf morningglory (Ipomoea hederacea, IPOHE); assay: as above; conditions: rating scale 0-100, 14 days after application
Summary of the method: as §3

[20] = system: velvetleaf (Abutilon theophrasti, ABUTH); assay: as above; conditions: rating scale 0-100, 14 days after application
Summary of the method: as §3

[21] = system: upland rice (Oryza sp., var. Tebonnet, RICE); assay: Pre-emerge test, crop safety; conditions: rating scale 0-100, 14 days after application
Summary of the method: (§4)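 Rating: 0–100 visual injury, 14 DAA. Application: acetone, 187 l/ha, 15–1000 g ai/ha, flat-fan track sprayer with nozzle 40–45 cm above soil or canopy. Post-emerge runs used 0.25% v/v surfactant on 2–3 leaf plants.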

[22] = system: field corn (Zea mays L., var. Dekalb 535, CORN); assay: Pre-emerge test, crop safety; conditions: 63 g ai/ha; rating scale 0-100, 14 days after application
Summary of the method: as §4

[23] = system: redroot pigweed (Amaranthus retroflexus, AMARE); assay: Pre-emerge test, greenhouse herbicide activity screening; conditions: rating scale 0-100, 14 days after application
Summary of the method: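 Visual ratings on a 0-100 scale (0 no damage, 100 all plants dead) were taken at 14 days after treatment. Rates of 15-1000 g ai/ha in acetone, 187 l/ha, were sprayed onto soil one day after planting (pre-emerge) or onto 2-3 leaf plants with 0.25% v/v surfactant (post-emerge).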

## COCCOC(=O)C(Cl)Cc1c(OC)c(Cl)cc(F)c1-n1c(=O)cc(C(F)(F)F)n(C)c1=O (stereo not drawn) [14-25]
[1]; Rate 63 g ai/ha
  Post-emerge phytotoxicity rating RICE (crop damage): 10
[1]; Rate 250 g ai/ha
  Post-emerge phytotoxicity rating RICE (crop damage): 50
[2]; Rate 63 g ai/ha
  Post-emerge phytotoxicity rating CORN (crop damage): 100
[2]; Rate 250 g ai/ha
  Post-emerge phytotoxicity rating CORN (crop damage): 100
[3]; Rate 63 g ai/ha
  Post-emerge Herbicidal Activity, phytotoxicity rating AMARE: 95
[3]; Rate 250 g ai/ha
  Post-emerge Herbicidal Activity, phytotoxicity rating AMARE: 100
[4]; Rate 63 g ai/ha
  Post-emerge Herbicidal Activity, phytotoxicity rating SORHA: 40
[4]; Rate 250 g ai/ha
  Post-emerge Herbicidal Activity, phytotoxicity rating SORHA: 95
[5]; Rate 63 g ai/ha
  Post-emerge Herbicidal Activity, phytotoxicity rating CASOB: 50
[5]; Rate 250 g ai/ha
  Post-emerge Herbicidal Activity, phytotoxicity rating CASOB: 80
[6]; Rate 63 g ai/ha
  Post-emerge Herbicidal Activity, phytotoxicity rating SETVI: 50
[6]; Rate 250 g ai/ha
  Post-emerge Herbicidal Activity, phytotoxicity rating SETVI: 80
[7]; Rate 63 g ai/ha
  Post-emerge Herbicidal Activity, phytotoxicity rating DIGSA: 95
[7]; Rate 250 g ai/ha
  Post-emerge Herbicidal Activity, phytotoxicity rating DIGSA: 100
[8]; Rate 63 g ai/ha
  Post-emerge Herbicidal Activity, phytotoxicity rating ECHCG: 100
[8]; Rate 250 g ai/ha
  Post-emerge Herbicidal Activity, phytotoxicity rating ECHCG: 100
[9]; Rate 63 g ai/ha
  Post-emerge Herbicidal Activity, phytotoxicity rating AMBEL: 100
[9]; Rate 250 g ai/ha
  Post-emerge Herbicidal Activity, phytotoxicity rating AMBEL: 100
[10]; Rate 63 g ai/ha
  Post-emerge Herbicidal Activity, phytotoxicity rating CHEAL: 80
[10]; Rate 250 g ai/ha
  Post-emerge Herbicidal Activity, phytotoxicity rating CHEAL: 100
[11]; Rate 63 g ai/ha
  Post-emerge Herbicidal Activity, phytotoxicity rating IPOHE: 70
[11]; Rate 250 g ai/ha
  Post-emerge Herbicidal Activity, phytotoxicity rating IPOHE: 100
[12]; Rate 63 g ai/ha
  Post-emerge Herbicidal Activity, phytotoxicity rating ABUTH: 100
[12]; Rate 250 g ai/ha
  Post-emerge Herbicidal Activity, phytotoxicity rating ABUTH: 100
[13]; 63 g ai/ha
  Pre-emerge herbicidal activity, phytotoxicity rating SORHA: 80
[13]; 250 g ai/ha
  Pre-emerge herbicidal activity, phytotoxicity rating SORHA: 100
[14]; 63 g ai/ha
  Pre-emerge herbicidal activity, phytotoxicity rating CASOB: 50
[14]; 250 g ai/ha
  Pre-emerge herbicidal activity, phytotoxicity rating CASOB: 100
[15]; 63 g ai/ha
  Pre-emerge herbicidal activity, phytotoxicity rating SETVI: 90
[15]; 250 g ai/ha
  Pre-emerge herbicidal activity, phytotoxicity rating SETVI: 100
[16]; 63 g ai/ha
  Pre-emerge herbicidal activity, phytotoxicity rating DIGSA: 70
[16]; 250 g ai/ha
  Pre-emerge herbicidal activity, phytotoxicity rating DIGSA: 100
[17]; 63 g ai/ha
  Pre-emerge herbicidal activity, phytotoxicity rating ECHCG: 80
[17]; 250 g ai/ha
  Pre-emerge herbicidal activity, phytotoxicity rating ECHCG: 100
[18]; 63 g ai/ha
  Pre-emerge herbicidal activity, phytotoxicity rating CHEAL: 100
[18]; 250 g ai/ha
  Pre-emerge herbicidal activity, phytotoxicity rating CHEAL: 100
[19]; 63 g ai/ha
  Pre-emerge herbicidal activity, phytotoxicity rating IPOHE: 70
[19]; 250 g ai/ha
  Pre-emerge herbicidal activity, phytotoxicity rating IPOHE: 100
[20]; 63 g ai/ha
  Pre-emerge herbicidal activity, phytotoxicity rating ABUTH: 100
[20]; 250 g ai/ha
  Pre-emerge herbicidal activity, phytotoxicity rating ABUTH: 100
[21]; 63 g ai/ha
  Pre-emerge phytotoxicity rating, crop damage RICE: 90
[21]; 250 g ai/ha
  Pre-emerge phytotoxicity rating, crop damage RICE: 100
[22]
  Pre-emerge phytotoxicity rating, crop damage CORN: 95
[23]; 63 g ai/ha
  Pre-emerge herbicidal activity, phytotoxicity rating AMARE: 100
[23]; 250 g ai/ha
  Pre-emerge herbicidal activity, phytotoxicity rating AMARE: 100
